# From patent publication US20230255934A1, “NURR1 RECEPTOR MODULATORS AND USES THEREOF” (The Regents of the University of California, priority 2020, published 2023)
# Experiments:
# [1] = target: T1, full-length Nurr1 (NBRE response element) (Mus musculus, UniProt Q06219); test: Full-length Nurr1 NBRE luciferase reporter assay in MN9D cells; type: cell-based; details: 6 h treatment
# T1 construct: a cell line derived from dopaminergic neurons which endogenously expresses full length Nurr1 and its target genes; endogenous in cells; host or cells: MN9D TET-ON cells
# Procedure: Luciferase Reporter Assays. These assays were executed using standard protocols. MN9D TET-ON cells (P5) were grown for 60-72 h (see above) before being seeded at 1-10^5 cell/well in 24-well plate in DMEM/F12+5% TET-ON approved FBS 3 h before transfection. Cells were transfected using Lipofectamine 2000 (Invitrogen) and plasmid DNAs according to manufacturer's instructions. Lipofectamine/DNA complexes were prepared in Opti-Mem medium (Gibco) and incubated with cells overnight. The Nurr1-LBD_Gal4-DBD expressing plasmid was prepared by subcloning the Nurr1 LBD fragment into […] plasmid (Clontech) containing GAL4 DBD. The reporter plasmid pGL4.35 (luc2P/9XGAL4 UAS/Hygro) Vector (Promega) contains nine repeats of GAL4 UAS (Upstream Activator Sequence) and drives transcription of the luciferase reporter gene luc2P in response to binding of Nurr-LBD_Gal4-DBD chimeric protein. The pRL-null (Promega) plasmid expressing renilla luciferase was used as an internal control. […] Alternatively, cells were co-transfected with the reporter plasmid NBREx3-POMC-Luc containing three copies of the NBRE sequence ([NT] ID NO:23)) subcloned into the pXP1-luc plasmid containing the minimal (positions -34 to +63) POMC promoter as described previously^7, and the pRL-null plasmid. […] Transfected cells were treated with increasing concentrations of 5-chloroindole or vehicle only for 6 h, after which time the media was aspirated and luciferase activity was measured. Cells from each well were incubated for 15 min with 220 μL/well of Dual-Glo® Luciferase Reagent (Promega) at room temperature upon rotation on the orbital shaker. […] Resulting solutions were transferred to a white opaque 96-well plate (65 μL/well; 3 wells/sample) and firefly luciferase activity was measured using Veritas Microplate Luminometer (Turner BioSystems, Sunnyvale, Calif.). […] Renilla luciferase activity was measured after 20 min of incubation of the plate inside the luminometer. Experimental values are expressed as the average of firefly/renilla luciferase activity±standard deviation (for three independent biological replicates). […]
# [2] = target: Nurr1 ligand binding domain (LBD) (Homo sapiens, UniProt P43354); details: non-canonical ligand binding pocket, Cys566; cited from earlier work
# th and vmat2 expression = details: zebrafish; cited from earlier work
# T1 sequence (Q06219 whole entry): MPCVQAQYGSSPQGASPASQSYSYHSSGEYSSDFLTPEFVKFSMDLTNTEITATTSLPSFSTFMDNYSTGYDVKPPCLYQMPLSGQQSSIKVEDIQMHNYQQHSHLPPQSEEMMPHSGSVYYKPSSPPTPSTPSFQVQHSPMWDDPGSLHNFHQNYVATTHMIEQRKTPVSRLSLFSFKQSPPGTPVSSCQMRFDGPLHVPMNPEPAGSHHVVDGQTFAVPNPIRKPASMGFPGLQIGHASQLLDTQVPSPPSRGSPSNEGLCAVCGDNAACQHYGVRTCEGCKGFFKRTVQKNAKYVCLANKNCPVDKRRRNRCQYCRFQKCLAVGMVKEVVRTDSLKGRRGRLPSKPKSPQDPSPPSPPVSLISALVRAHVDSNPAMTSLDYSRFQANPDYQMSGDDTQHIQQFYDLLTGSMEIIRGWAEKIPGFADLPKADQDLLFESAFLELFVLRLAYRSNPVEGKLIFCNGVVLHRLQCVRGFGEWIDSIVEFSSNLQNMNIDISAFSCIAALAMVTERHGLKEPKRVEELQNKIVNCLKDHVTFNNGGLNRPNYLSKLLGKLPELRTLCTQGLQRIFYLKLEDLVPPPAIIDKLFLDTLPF
# Nurr1 ligand binding domain (LBD), sequence (P43354 360-595 limits assumed): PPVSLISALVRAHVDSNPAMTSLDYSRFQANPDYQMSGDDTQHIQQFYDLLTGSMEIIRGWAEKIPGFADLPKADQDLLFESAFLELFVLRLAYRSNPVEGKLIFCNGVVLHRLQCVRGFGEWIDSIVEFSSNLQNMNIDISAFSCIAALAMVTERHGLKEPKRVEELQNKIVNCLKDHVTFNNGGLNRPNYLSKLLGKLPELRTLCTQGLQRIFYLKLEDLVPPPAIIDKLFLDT
"Luciferase production, full-length Nurr1 NBRE reporter [1]",Compound,Binding to the Nurr1 LBD (in words) [2],Expression of th and vmat2 (th and vmat2 expression)
perform as expected,"N#Cc1ccc2[nH]ccc2c1 [5-cyanoindole, reference compound]",–,–
–,"Oc1cc2cc[nH]c2cc1O [DHI, 5,6-dihydroxyindole]",forming a reversible covalent adduct with the side chain of Cys566,stimulates the expression of th and vmat2
perform as expected,"CCN(CC)Cc1cc(Nc2ccnc3cc(Cl)ccc23)ccc1O [amodiaquine, reference compound]",–,–
